# Assay results published in US11786534B2 (TAIHO PHARMACEUTICAL CO., LTD., priority 2019, dated 2023).
# Key:
# Assay type in all cases: biochemical
# [1] = biological target: T1, human EGFR (L858R/T790M/C797S) (Homo sapiens, UniProt P00533, C797S/L858R/T790M); experiment: Inhibitory activity against EGFR (L858R/T790M/C797S) kinase; conditions: Test Example 1, Table 3; ATP 0.5 μM
# T1 construct: made in house; host or cells: Sf9 insect cells, baculovirus
# Method: 2) Measurement of inhibitory activity against EGFR (L858R/T790M/C797S) kinase
# The compounds of the presein invention were measured for their inhibitory activity against EGFR (L858R/T790M/C797S) kinase activity.
# The materials, measurement procedures and data analysis method used in this test are substantially the same as those shown in the section “Measurement of inhibitory activity against EGFR (d746-750/T790M/C797S) kinase.” However, among the materials, the kinase protein (SEQ ID NO: 2) used was prepared as follows: the cytoplasmic domain of human EGFR (L858R/T790M/C797S) fused at the amino terminal end with a GST tag was expressed in insect cells (Sf9) by the baculovirus expression system and then purified on a glutathione sepharose column. In the measurement procedures, the final concentration of ATP was set to 0.5 μM. Finally, data analysis was conducted to determine the IC50 value (nM) of each compound against EGFR (L858R/T790M/C797S).
# In accordance with the same procedures as shown in 2) in Test Example 1, the compounds of the present invention were measured for their inhibitory activity against EGFR (L858R/T790M/C797S) kinase activity.
# human EGFR (L858R/C797S) = biological target: T2, human EGFR (L858R/C797S) (Homo sapiens, UniProt P00533, C797S/L858R); experiment: Inhibitory activity against EGFR (L858R/C797S) kinase; conditions: Test Example 1, Table 5; ATP 4 μM, 90 minutes
# T2 construct: purchased SignalChem
# Method: 4) Measurement of inhibitory activity against EGFR (L858R/C797S) kinase
# The compounds of the present invention were measured for their inhibitory activity aeainst EGFR (L858R/C797S) kinase activity.
# The materials, measurement procedures and data analysis method used in this test are stibstantially the same as those shown in the section “Measurement of inhibitory activity against EGFR (d746-750/C797S) kinase.” However, among the materials, the kinase protein used was a purified recombinant human EGFR (C797S/L858R) protein purchased from SignalChem. In the measurement procedures, the final concentration of ATP was set to 4 μM, and the incubation time for kinase reaction was set to 90 minutes. Finally, data analysis was conducted determine the IC50 value (nM) of each compound against EGFR (L858R/C797S).
# In accordance with the same procedures as shown in 4) in Test Example 1, the compounds of the present invention were measured for their inhibitor activity against. EGFR (L858R/C797S) kinase activity.
# [2] = biological target: T3, human EGFR (d746-750/C797S) (Homo sapiens, UniProt P00533, C797S/DEL746-750); experiment: Inhibitory activity against EGFR (d746-750/C797S) kinase; conditions: Test Example 1, Table 4; ATP 14 μM, 60 minutes
# T3 construct: purchased SignalChem
# Method: 3) Measurement of inhibitory activity against EGFR (d746-750/C797S) kinase
# The compounds of the present invention were measured for their inhibitory activity against EGFR (d746-750/C797S) kinase activity.
# The materials, measurement procedures and data analysis method used in this test are substantially the same as those shown in the section “Measurement of inhibitory activity aiainst EGFR (d746-750/T790M/C797S) kinase.” However, among the materials, the kinase protein used was a purified recombinant human EGFR (d746-750/C797S) protein purchased from SignalChem, while the kinase reaction buffer used was 13.5 mM Tris (pH 7.5) containing 2 mM dithiothreitol and 0.009% Tween-20. In the measurement procedures, the final concentration of ATP was set to 14 μM, the final concentration of maganesium chloride was set to 20 mM, the final concentration of manganese chloride was set to 12.5 mM, the incubation time for kinase reaction was set to 60 minutes, and the final concentration of EDTA used to stop the kinase reaction was set to 40 mM. Finally, data analysis was conducted to determine to IC50 value (nM) of each compound against EGFR (d746-750/C797S).
# In accordance with the same procedures as shown in 3) in Test Example 1, the compounds of the present invention were measured for their inhibitory activity against EGFR (d746-750/C797S) kinase activity.
# human EGFR (WT) = biological target: T4, human EGFR (WT) (Homo sapiens, UniProt P00533); experiment: Inhibitory activity against EGFR (WT) kinase; conditions: Test Example 1, Table 6; ATP 1.5 μM
# T4 construct: purchased Carna Biosciences Inc., Japan
# Method: The compounds of the present invention were measured for their inhibitory activity nainst EGFR (WT) kinase activity.
# The materials, measurement procedures and data analysis method used in this test. are substantially the same as those shown in the section “Measurement of inhibitory activity against EGFR (d746-750/T790M/C797S) kinase.” However, among the materials, the kinase protein used was a purified recombinant human EGFR (WT) purchased from Carna Biosciences Inc., Japan. In the measurement procedures, the final concentration of ATP was set to 1.5 μM. Finally, data analysis was conducted to determine the IC50 value (nM) of each compound against EGFR (WT).
# In accordance with the same procedures as shown in 5) in Test Example 1, the compounds of the present invention were measured for their inhibitory activity against. EGFR (WT) kinase activity.
# [3] = biological target: T5, human EGFR (d746-750/T790M/C797S) (Homo sapiens, UniProt P00533, C797S/DEL746-750/T790M); experiment: Inhibitory activity against EGFR (d746-750/T790M/C797S) kinase; conditions: Test Example 1, Table 2; ATP 6 μM, 25° C., 120 minutes
# T5 construct: made in house; host or cells: Sf9 insect cells, baculovirus
# Method: 1) Measurement of inhibitory activity against EGFR (d746-750/T790M/C797S) kinase
# The compounds of the above examples and comparative examples were measured for their inhibitory activity against EGFR (d746-750/T790M/C797S) kinase activity. Among the materials required for measurement of this inhibitory activity, the kinase protein (SEQ ID NO: 1) used was prepared as follows: the cytoplasmic domain of human EGFR (d746-750/T790M/C797S) fused at the ammo terminal end with a glutathione-S-transferase (GST) tag was expressed M insect cells (Sf9) by the baculovirus expression system and then purified an a glutathione sepharose column. For use as a substrate peptide, a peptide biotinylated at the N-terminal end (biotin -EEPLYWSFPAKKK) was synthesized by reference to Perkin Elmer LabChip® series reagent FL-Peptide 22.
# Procedures for measurement of the inhibitory activity are as follows. First, the compounds of the present invention were each dissolved in dimethyl sulfoxide (DMSO), and their serial dilutions were then prepared with DMSO. Secondly, each compound serial dilution (final concentration of DMSO during kinase reaction: 2.5%) or DMSO (final concentration: 2.5%) was mixed with a solution containing the substrate peptide (final concentration: 250 nM), magnesium chloride (final concentration: 10 mM), manganese chloride (final concentration: 10 mM) and ATP (final concentration: 6 μM) in a kinase reaction buffer (Carna Biosciences Inc., Japan), and the EGFR (d746-750/T790M/C797S) protein was further added thereto, followed by incubation at 25° C. for 120 minutes to cause kinase reaction. To the reaction solution, EDTA was added to give a final concentration of 24 mM to thereby stop the reaction, followed by addition of a phospholylated tyrosine detection solution containing europium-labeled anti-phosphorylated tyrosine antibody PT66 (Perkin Elmer) and SureLight APC-SA (Perkin Elmer). The reaction solution was allowed to stand at room temperature for 2 hours or longer. As a background, DMSO was used instead of each compound solution in .DMSO, and EDIA was added prior to the addition of the EGFR EGFR (d746-750/T790M/C797S) protein, followed by incubation at 25° C. for 120 minutes. The same detection solution was also added to this reaction solution, which was then allowed to stand for 2 hours or longer. Finally, all the test samples were measured with a PHERAstar FS reader (BMG LABTECH) for their fluorescence intensity at two wavelengths of 620 nm and 665 nm upon irradiation with an excitation light of 337 nm wavelength, and the ratio of fluorescence intensities at these two wavelengths was obtained as data for each compound.
# Moreover, as control compounds, the above Comparative Example A (Example 3 in WO2013/118817) and Comparative Example B (Example 35 in WO2013/118817) known to have EGFR inhibitory activity were used.
# In accordance with the same procedures as shown in 1) in Test Example 1, the compounds of the above examples were measured for their inhibitory activity against EGFR (d746-750/T790M/C797S) kinase activity.
# T1 sequence (P00533 with tags, fused parts or gaps T790M/C797S/L858R): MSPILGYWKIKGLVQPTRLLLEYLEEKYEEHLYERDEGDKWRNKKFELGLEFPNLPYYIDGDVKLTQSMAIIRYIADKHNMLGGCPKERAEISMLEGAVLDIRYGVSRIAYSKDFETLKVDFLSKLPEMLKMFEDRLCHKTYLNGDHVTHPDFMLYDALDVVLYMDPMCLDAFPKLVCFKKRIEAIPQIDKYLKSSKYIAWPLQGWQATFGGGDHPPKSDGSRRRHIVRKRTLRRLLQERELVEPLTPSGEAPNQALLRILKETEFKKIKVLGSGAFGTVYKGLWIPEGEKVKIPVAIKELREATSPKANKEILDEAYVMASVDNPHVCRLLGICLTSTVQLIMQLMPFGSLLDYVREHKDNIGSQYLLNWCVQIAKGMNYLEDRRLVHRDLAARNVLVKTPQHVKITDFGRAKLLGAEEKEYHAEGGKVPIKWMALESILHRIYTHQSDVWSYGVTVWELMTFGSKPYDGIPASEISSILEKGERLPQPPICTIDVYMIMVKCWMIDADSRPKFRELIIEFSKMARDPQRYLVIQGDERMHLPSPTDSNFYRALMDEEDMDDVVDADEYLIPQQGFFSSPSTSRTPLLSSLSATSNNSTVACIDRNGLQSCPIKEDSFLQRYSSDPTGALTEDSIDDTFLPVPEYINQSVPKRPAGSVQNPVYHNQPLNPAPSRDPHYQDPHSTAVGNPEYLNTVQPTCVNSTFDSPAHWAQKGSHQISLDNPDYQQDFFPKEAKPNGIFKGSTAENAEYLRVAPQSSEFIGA
# T3 sequence (P00533 with tags, fused parts or gaps DEL746-750/C797S): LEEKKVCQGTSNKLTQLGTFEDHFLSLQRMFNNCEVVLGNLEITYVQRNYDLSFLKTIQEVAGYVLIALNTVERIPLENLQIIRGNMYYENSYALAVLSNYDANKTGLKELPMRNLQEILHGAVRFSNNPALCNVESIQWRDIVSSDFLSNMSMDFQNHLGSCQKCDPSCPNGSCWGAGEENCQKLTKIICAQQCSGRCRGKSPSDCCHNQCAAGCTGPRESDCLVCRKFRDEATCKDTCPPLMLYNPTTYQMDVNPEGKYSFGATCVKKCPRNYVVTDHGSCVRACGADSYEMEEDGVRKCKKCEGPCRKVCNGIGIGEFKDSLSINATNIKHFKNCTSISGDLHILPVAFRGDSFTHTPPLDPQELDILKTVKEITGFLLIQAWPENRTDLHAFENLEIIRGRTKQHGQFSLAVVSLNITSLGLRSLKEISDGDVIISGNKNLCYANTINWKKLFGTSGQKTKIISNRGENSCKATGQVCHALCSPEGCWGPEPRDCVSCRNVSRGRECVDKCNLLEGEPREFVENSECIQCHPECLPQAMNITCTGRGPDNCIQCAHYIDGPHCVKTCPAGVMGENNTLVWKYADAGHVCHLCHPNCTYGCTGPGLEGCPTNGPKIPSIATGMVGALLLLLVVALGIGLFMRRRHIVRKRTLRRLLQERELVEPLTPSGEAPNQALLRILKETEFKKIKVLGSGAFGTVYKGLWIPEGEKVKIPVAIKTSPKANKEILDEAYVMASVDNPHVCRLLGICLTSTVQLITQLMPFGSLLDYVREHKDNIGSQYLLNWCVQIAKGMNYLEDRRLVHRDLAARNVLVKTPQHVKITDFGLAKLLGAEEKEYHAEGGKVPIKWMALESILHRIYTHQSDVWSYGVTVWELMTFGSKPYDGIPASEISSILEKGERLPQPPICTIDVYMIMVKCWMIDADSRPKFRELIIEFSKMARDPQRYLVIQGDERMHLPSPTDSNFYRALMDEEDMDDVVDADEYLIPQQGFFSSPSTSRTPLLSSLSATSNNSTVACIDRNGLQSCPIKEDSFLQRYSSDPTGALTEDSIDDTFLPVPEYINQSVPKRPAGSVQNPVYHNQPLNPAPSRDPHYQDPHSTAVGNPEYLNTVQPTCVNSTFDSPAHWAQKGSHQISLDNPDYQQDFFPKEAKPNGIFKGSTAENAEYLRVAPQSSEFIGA
# T5 sequence (P00533 with tags, fused parts or gaps DEL746-750/T790M/C797S): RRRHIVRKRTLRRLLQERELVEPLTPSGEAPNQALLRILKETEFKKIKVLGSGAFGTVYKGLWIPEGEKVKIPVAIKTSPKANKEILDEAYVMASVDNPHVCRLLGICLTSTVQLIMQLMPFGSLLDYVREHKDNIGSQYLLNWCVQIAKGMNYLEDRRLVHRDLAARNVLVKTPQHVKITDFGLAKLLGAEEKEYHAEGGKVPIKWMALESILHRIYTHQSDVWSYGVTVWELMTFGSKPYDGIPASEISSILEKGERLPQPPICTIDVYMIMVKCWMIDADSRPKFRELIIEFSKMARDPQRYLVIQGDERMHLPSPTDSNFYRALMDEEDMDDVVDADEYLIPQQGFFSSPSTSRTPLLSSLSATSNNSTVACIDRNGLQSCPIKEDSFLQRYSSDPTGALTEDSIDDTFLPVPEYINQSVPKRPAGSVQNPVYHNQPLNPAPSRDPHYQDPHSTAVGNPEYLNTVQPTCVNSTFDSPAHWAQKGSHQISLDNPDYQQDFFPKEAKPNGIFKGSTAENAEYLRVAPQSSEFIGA
# T4 sequence (P00533 25-1210): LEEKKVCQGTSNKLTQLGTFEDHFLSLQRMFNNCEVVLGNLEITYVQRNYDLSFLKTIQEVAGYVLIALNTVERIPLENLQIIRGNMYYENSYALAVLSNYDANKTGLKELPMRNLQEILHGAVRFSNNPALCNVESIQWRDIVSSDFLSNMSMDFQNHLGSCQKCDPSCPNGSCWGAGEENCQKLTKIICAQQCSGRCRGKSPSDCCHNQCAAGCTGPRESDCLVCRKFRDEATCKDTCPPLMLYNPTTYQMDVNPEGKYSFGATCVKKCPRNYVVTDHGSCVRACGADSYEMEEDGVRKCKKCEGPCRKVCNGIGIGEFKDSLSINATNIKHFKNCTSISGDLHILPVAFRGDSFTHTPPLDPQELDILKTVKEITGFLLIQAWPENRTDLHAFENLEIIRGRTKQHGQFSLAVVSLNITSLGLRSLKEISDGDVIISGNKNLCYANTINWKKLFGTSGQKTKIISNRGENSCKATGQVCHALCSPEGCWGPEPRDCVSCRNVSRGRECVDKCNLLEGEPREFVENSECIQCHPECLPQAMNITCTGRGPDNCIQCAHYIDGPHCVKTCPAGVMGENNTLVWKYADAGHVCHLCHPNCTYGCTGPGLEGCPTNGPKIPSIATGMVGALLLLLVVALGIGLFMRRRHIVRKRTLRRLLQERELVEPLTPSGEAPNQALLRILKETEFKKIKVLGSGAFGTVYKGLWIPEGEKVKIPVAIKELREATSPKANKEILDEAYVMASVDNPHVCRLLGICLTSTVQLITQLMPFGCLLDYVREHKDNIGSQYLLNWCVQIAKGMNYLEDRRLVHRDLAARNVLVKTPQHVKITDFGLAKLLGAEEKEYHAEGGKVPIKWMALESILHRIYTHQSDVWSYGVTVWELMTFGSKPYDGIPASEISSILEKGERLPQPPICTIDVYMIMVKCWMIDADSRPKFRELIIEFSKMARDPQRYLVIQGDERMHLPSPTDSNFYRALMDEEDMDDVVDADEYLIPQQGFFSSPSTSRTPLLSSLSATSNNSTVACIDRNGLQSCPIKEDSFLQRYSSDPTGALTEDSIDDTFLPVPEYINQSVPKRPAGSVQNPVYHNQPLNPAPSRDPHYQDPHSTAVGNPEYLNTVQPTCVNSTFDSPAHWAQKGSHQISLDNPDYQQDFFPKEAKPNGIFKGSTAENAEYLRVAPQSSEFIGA
# T2 sequence (P00533 25-1210 C797S/L858R): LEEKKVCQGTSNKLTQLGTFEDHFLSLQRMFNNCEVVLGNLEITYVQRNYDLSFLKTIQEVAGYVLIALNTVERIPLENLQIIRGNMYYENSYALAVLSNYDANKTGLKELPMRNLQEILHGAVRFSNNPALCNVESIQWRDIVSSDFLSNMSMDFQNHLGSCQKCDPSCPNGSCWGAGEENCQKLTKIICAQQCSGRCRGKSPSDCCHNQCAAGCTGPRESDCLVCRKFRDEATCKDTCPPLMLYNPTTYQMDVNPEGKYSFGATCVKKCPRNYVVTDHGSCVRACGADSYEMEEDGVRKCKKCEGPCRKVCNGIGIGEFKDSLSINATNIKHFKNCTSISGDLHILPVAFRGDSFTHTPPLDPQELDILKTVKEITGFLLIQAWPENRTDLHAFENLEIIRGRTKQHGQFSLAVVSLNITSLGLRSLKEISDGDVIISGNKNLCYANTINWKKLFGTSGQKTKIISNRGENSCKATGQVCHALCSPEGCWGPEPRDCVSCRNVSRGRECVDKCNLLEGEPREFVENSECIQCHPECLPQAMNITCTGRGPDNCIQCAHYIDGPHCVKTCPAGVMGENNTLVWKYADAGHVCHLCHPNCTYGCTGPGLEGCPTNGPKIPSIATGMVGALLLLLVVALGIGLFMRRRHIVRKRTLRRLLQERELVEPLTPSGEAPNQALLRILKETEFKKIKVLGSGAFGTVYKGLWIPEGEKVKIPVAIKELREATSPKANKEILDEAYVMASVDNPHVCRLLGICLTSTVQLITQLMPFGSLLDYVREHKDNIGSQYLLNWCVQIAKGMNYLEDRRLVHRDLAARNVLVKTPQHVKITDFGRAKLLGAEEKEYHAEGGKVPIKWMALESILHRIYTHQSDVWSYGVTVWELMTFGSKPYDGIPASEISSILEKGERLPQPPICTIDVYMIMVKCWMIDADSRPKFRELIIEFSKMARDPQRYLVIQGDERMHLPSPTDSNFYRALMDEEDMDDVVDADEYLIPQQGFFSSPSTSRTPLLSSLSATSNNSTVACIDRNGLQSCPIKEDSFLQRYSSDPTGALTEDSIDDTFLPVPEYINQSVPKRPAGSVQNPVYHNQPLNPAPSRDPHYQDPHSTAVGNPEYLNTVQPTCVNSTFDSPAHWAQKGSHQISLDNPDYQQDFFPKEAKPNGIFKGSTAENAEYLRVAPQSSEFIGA
SMILES,IC50 [1] [nM],IC50 (human EGFR (L858R/C797S)) [nM],IC50 [2] [nM],IC50 (human EGFR (WT)) [nM],IC50 [3] [nM]
"C#Cc1c(-c2cnc3ccccc3c2)c2c(N)ncnc2n1C12CCC(NC(=O)COC)(CC1)C2 [Example 28, N-(4-(4-Amino-6-ethynyl-5-(quinolin-3-yl)-7H-pyrrolo[2,3-d]pyrimidin-7-yl)bicyclo-[2.2.1]heptan-1-yl)-2-methoxyacetamide]",1.1,1.7,0.89,3.2,< 0.3
"C#Cc1c(-c2cnc3ccccc3c2)c2c(N)ncnc2n1C12CCC(NC(=O)c3cc(CF)nn3C)(CC1)C2 [Example 29, N-(4-(4-Amino-6-ethynyl-5-(quinolin-3-yl)-7H-pyrrolo[2,3-d]pyrimidin-7-yl)bicyclo-[2.2.1]heptan-1-yl)-3-(fluoromethyl)-1-methyl-1H-pyrazole-5-carboxamide]",0.31,0.39,0.32,0.62,< 0.3
"C#Cc1c(-c2cnc3ccccc3c2)c2c(N)ncnc2n1C12CCC(NC(=O)c3cc(S(C)(=O)=O)ccn3)(CC1)C2 [Example 30, N-(4-(4-Amino-6-ethynyl-5-(quinolin-3-yl)-7H-pyrrolo[2,3-d]pyrimidin-7-yl)bicyclo-[2.2.1]heptan-1-yl)-4-(methylsulfonyl)picolinamide]",0.33,1.2,0.64,1.9,< 0.3
"C#Cc1c(-c2cnc3ccccc3c2)c2c(N)ncnc2n1C12CCC(NC(=O)c3cnccc3OC)(CC1)C2 [Example 31, N-(4-(4-Amino-6-ethynyl-5-(quinolin-3-yl)-7H-pyrrolo[2,3-d]pyrimidin-7-yl)bicyclo-[2.2.1]heptan-1-yl)-4-methoxynicotinamide]",0.52,0.62,0.49,1.5,< 0.3
"C#Cc1c(-c2cnc3ccccc3c2)c2c(N)ncnc2n1C12CCC(NC(=O)c3cncc(C#N)c3)(CC1)C2 [Example 34, N-(4-(4-Amino-6-ethynyl-5-(quinolin-3-yl)-7H-pyrrolo[2,3-d]pyrimidin-7-yl)-bicyclo-[2.2.1]heptan-1-yl)-5-cyanonicotinamide]",< 0.3,0.45,0.46,0.84,< 0.3
"C#Cc1c(-c2cnc3ccccc3c2)c2c(N)ncnc2n1C12CCC(NC(=O)c3cncc(OCF)n3)(CC1)C2 [Example 38, N-(4-(4-Amino-6-ethynyl-5-(quinolin-3-yl)-7H-pyrrolo[2,3-d]pyrimidin-7-yl)-bicyclo-[2.2.1]heptan-1-yl)-6-(fluoromethoxy)pyrazine-2-carboxamide]",0.66,0.97,0.56,1.6,< 0.3
C#Cc1c(-c2cnc3ccccc3c2)c2c(N)ncnc2n1C12CCC(NC(=O)c3nccn4ccnc34)(CC1)C2 [Example 42],< 0.3,0.43,0.48,0.31,< 0.3
C#Cc1c(-c2cnc3ccccc3c2)c2c(N)ncnc2n1C12CCC(NC(=O)NCC)(CC1)C2 [Example 50],0.68,2,0.97,1.2,< 0.3
C#Cc1c(-c2cnc3ccccc3c2)c2c(N)ncnc2n1C12CCC(NC(=O)c3ncccn3)(CC1)C2 [Example 51],0.34,0.99,0.83,0.94,< 0.3
C#Cc1c(-c2cnc3ccccc3c2)c2c(N)ncnc2n1C12CCC(NC(=S)NCC)(CC1)C2 [Example 52],0.6,2.6,1.5,0.88,< 0.3
"C#Cc1c(-c2cnc3ccccc3c2)c2c(N)ncnc2n1C12CCC(N(C)C(=O)c3ncco3)(CC1)C2 [Example 58, N-[4-(4-Amino-6-ethynyl-5-quinolin-3-ylpyrrolo[2,3-d]pyrimidin-7-yl)-1-bicyclo-[2.2.1]heptan-1-yl]-N-methyloxazole-2-carboxamide]",1.5,3.4,2.2,3.9,< 0.3
